In ChEMBL document CHEMBL4813990, “One-step modification to identify dual-inhibitors targeting both pancreatic triglyceride lipase and Niemann-Pick C1-like 1” (Eur J Med Chem, 2021):
Active and inactive are the calls of the source. The calls are words filed in the database; no cut-off is given here.

Legend:
[1] = molecular target: T1, NPC1-like intracellular cholesterol transporter 1 (Homo sapiens) (UniProt Q9UHC9); test: Inhibition of NPC1L1 in human Caco-2 cells assessed as decrease in uptake of cholesterol-d6 at 50 uM by HPLC-MS analysis; type: cell-based
T1 sequence (whole entry): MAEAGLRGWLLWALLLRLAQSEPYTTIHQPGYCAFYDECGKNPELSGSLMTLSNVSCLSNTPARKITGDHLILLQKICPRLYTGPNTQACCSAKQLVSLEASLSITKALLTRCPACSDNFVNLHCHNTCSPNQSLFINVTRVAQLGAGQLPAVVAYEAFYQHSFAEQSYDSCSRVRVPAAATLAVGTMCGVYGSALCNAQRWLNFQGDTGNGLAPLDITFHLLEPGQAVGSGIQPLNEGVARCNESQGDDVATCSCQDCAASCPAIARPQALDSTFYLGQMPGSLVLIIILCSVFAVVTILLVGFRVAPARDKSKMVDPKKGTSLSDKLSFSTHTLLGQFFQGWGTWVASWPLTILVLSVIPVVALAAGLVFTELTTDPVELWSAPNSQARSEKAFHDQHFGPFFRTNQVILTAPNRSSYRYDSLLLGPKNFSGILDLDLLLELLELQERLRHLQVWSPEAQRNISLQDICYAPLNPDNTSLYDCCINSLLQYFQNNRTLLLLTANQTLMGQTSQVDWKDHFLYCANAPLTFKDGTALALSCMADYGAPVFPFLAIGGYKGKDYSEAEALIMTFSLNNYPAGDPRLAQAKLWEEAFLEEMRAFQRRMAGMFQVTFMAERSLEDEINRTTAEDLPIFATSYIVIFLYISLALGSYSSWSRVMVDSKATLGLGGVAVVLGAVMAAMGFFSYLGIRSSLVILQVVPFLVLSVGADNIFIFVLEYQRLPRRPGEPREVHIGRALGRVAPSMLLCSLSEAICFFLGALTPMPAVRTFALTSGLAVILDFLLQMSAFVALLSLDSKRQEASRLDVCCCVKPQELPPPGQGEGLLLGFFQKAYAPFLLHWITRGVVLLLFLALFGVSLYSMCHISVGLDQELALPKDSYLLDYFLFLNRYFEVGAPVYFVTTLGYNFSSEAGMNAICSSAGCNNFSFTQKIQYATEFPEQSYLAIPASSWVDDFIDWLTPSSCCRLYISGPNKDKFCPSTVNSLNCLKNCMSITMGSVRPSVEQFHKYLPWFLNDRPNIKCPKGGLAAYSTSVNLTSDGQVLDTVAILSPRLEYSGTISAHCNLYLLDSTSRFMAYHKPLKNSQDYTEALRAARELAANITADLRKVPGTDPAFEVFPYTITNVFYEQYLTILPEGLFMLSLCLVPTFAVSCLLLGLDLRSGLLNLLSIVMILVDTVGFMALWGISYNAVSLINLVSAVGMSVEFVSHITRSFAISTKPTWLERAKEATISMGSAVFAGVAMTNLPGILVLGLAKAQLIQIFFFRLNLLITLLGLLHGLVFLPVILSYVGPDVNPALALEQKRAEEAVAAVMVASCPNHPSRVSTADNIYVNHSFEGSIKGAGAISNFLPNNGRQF

Caco-2 [2] = test: Inhibition of NPC1L1 mRNA expression in human Caco-2 cells at 100 uM incubated for 24 hrs by qRT-PCR analysis; type: functional, cell-based
Caco-2 [3] = test: Inhibition of PTL mRNA expression in human Caco-2 cells at 100 uM incubated for 24 hrs by qRT-PCR analysis; type: functional, cell-based
Caco-2 [4] = test: Inhibition of NPC1L1 expression in human Caco-2 cells at 0.1 to 100 uM incubated for 24 hrs by Western blot analysis; type: functional, cell-based; conditions: dose 0.1-100 µM
Caco-2 [5] = test: Inhibition of PTL expression in human Caco-2 cells at 0.1 to 100 uM incubated for 24 hrs by Western blot analysis; type: functional, cell-based; conditions: dose 0.1-100 µM
[6] = molecular target: T1, NPC1-like intracellular cholesterol transporter 1 (Homo sapiens); test: Binding affinity to NPC1L1 (unknown origin) at 6.25 to 100 uM by SPR analysis; conditions: dose 6.25-100 µM
[7] = molecular target: T1, NPC1-like intracellular cholesterol transporter 1 (Homo sapiens); test: Non-competitive inhibition of NPC1L1 in human Caco-2 cells assessed as decrease in uptake of cholesterol at 50 uM by HPLC-MS based Lineweaver-Burk double reciprocal plot analysis; type: cell-based

Row | SMILES | inhibition [1] | inhibition (Caco-2 [2]) | inhibition (Caco-2 [3]) | inhibition (Caco-2 [4]) | inhibition (Caco-2 [5]) | Activity [6] | inhibition [7]
1 | O=C1[C@H](CC[C@H](O)c2ccc(F)cc2)[C@@H](c2ccc(O)cc2)N1c1ccc(F)cc1 | Active | inactive | Active | inactive | Active |  | 
2 | CCCCCCCCCCC[C@@H](C[C@@H]1OC(=O)[C@H]1CCCCCC)OC(=O)c1ccc(O)cc1 | Active | inactive | Active | inactive | Active | Active | Active
3 | CCCCCCCCCCC[C@@H](C[C@@H]1OC(=O)[C@H]1CCCCCC)OC(=O)[C@H](CC(C)C)NC=O | Active |  |  | inactive | Active | Active | 
4 | CCCCCCCCCCC[C@@H](C[C@@H]1OC(=O)[C@H]1CCCCCC)OC(=O)c1cccc(O)c1 |  |  |  |  |  | Active | 
